Source: BindingDB's records for doi:10.1021/acs.jmedchem.0c00262 (University of Leeds, 2020)
pIC50: −log10 of the molar value. Blank lines part the entries; values can stand above or below the molecule they belong to.

Tests used:
[1] = Modulation of GP6 in human platelets assessed as reduction in convulxin-induced platelet aggregation
[2] = Modulation of GP6 in human platelets reduction in collagen-induced platelet aggregation preincubated for 20 mins followed by collagen stimulation
[3] = Inhibition of GP6 in human whole blood assessed as protein-mediated platelet aggregation preincubated for 15 mins followed by collagen stimulation and measured for 10 mins by multiple electrode aggregometry
[4] = biological target: T1, Platelet glycoprotein VI (Homo sapiens, UniProt Q9HCN6); experiment: Inhibition of GP6 in human whole blood assessed as protein-mediated platelet aggregation preincubated for 15 mins followed by collagen stimulation and measured for 10 mins by multiple electrode aggregometry
T1 sequence (Q9HCN6 whole entry): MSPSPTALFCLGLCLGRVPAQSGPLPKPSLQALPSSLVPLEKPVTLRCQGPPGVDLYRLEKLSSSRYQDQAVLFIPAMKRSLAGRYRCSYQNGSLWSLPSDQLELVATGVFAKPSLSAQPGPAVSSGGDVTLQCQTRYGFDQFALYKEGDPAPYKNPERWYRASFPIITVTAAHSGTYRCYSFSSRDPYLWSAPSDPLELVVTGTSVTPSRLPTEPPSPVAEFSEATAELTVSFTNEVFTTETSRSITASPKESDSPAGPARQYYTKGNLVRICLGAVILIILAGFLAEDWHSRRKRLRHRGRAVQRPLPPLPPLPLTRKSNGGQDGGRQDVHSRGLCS

[5] = Antagonist activity at GP6 in human platelet assessed as reduction in CRP-induced platelet-aggregation preincubated for 10 mins followed by collagen stimulation by aggregometry
[6] = Antagonist activity at GP6 in human platelet assessed as reduction in collagen-induced platelet-aggregation preincubated for 10 mins followed by collagen stimulation by aggregometry

Compound: Cc1cccc(Nc2nc(N[C@@H]3CCCC[C@@H]3N)ncc2C(N)=O)c1
pIC50 [1]: 7.51
pIC50 [2]: 6.24

Compound: C/C=C/C(=O)N1CCC[C@H]1c1nc(-c2ccc(C(=O)Nc3ccccn3)cc2)c2c(N)nccn12 [ACP-196]
pIC50 [4]: 5.92

Compound: C=C1C(=O)[C@@]23[C@H](O)C[C@@H]4C(C)(C)C(=O)CC[C@@]4(C)[C@@H]2CC[C@@H]1[C@H]3O [Glaucocalyxin A]
pIC50 [5]: 8.70
pIC50 [6]: 7.68

Compound: C=CC(=O)N1CCC[C@@H](n2nc(-c3ccc(Oc4ccccc4)cc3)c3c(N)ncnc32)C1 [IBRUTINIB]
pIC50 [3]: 6.92

Compound: CC#CC(=O)N1CC[C@@H](n2c(=O)n(-c3ccc(Oc4ccccc4)cc3)c3c(N)ncnc32)C1 [US9199997, 9]
pIC50 [3]: 5.92

Next, values leading:

pIC50 [3]: 6.29
Compound: C=CC(=O)N1CCC([C@@H]2CCNc3c(C(N)=O)c(-c4ccc(Oc5ccccc5)cc4)nn32)CC1 (single isomer, unassigned) [US9447106, 27b (peak 2)]

pIC50 [3]: 5.23
Compound: C=CC(=O)N1CCC(CNc2ncnc(N)c2-c2ccc(Oc3ccccc3)cc2)CC1 [US9580449, Example A39]
